Measured values reported in publication PMC7017082, “Tivantinib, A c-Met Inhibitor in Clinical Trials, Is Susceptible to ABCG2-Mediated Drug Resistance” (Cancers, 2020).

Molecular target: T1, ABCG2 (ATP-binding cassette super-family G member 2, BCRP) (Homo sapiens, UniProt Q9UNQ0)
T1 construct: ABCG2 in insect cell membrane vesicles
T1 sequence (Q9UNQ0 1-655): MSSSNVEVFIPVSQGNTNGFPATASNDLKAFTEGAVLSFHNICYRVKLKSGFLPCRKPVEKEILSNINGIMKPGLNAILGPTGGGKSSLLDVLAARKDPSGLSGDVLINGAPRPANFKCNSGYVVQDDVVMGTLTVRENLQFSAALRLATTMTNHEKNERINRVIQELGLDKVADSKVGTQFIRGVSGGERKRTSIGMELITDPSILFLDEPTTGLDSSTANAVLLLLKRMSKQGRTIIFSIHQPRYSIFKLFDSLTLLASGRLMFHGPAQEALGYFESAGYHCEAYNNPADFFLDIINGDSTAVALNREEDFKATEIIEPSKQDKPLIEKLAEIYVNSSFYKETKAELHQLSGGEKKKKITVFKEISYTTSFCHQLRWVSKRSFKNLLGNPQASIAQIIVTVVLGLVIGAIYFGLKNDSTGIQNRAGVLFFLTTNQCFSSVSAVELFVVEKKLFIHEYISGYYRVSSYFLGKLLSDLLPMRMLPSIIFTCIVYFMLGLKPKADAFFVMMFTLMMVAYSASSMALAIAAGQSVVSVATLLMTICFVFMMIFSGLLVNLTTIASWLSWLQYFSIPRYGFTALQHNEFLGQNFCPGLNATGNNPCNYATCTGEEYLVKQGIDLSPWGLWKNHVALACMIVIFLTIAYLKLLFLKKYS
Assay: biochemical

For O=C1NC(=O)[C@@H](c2cn3c4c(cccc24)CCC3)[C@@H]1c1c[nH]c2ccccc12 [Tivantinib], the EC50 was 6.76 µM.
